Results as given in EP4696689A1, “SALT FORM AND CRYSTAL FORM OF CHIRAL HETEROCYCLIC COMPOUND HAVING HEDGEHOG PATHWAY ANTAGONIST ACTIVITY” (Suzhou Kintor Pharmaceuticals, Inc., priority 2023, dated 2024).

Test system: primary extracted medulloblastoma cells
Experiment: antitumor efficacy against medulloblastoma, subcutaneous xenograft model;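 further: male CB-17/SCID mice bearing subcutaneous tumors, randomized at 150-300 mm^3, tumor volume from caliper diameters as 0.5 × longest × shortest squared, measured twice weekly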
Format: in vivo, CB-17/SCID mice
Details: for Tumor Volume at Day 0 (mm^3): before treatment; for T/C (%) / Tumor Volume at Dosing Endpoint (mm^3) / TGI (%): 17 days; for Tumor Volume at Dosing Endpoint (mm^3): volume on Day 18; for Fold Change in Tumor Volume: Day 18 compared to Day 0; for anti-tumor efficacy compared to the high-dose GDC-0449 (10 mg/kg) group: after 17 days of treatment
Method: 60 male CB-17/SCID mice (aged 6-8 weeks) were purchased from Shanghai SLAC Laboratory Animal Co., Ltd. Animals were housed in individually ventilated cages (IVCs), with five mice per cage. Housing conditions were as follows: temperature was maintained at 20-26°C; humidity was 30-70%; 12 hours of light and 12 hours of darkness.
CB-17/SCID mice were subcutaneously injected with primary extracted medulloblastoma cells. After 3-4 weeks, a subset of mice developed tumors with volumes ranging from 150 to 300 mm^3.
30 mice with uniform tumor sizes (Coefficient of Variation, CV < 30%, CV = Standard Deviation / Mean) were selected from this group. These mice were selected and randomly divided into five experimental groups according to Table 6-2, with six mice in each group and one group per cage. Drug administration began the day after grouping and lasted for 17 days with a frequency of twice daily (BID). The drug was discontinued after 17 days to observe tumor changes.
During routine examinations, animals were monitored for tumor growth, activity level, food intake, water consumption, weight gain or loss, eye, fur, and any other abnormal behaviors. Animal deaths and clinical abnormalities were recorded. Tumor volume (TV) was measured twice weekly using calipers and calculated using the formula: TV = 0.5a × b^2, wherein a is the longest diameter of the tumor and b is the shortest diameter. Body weight was recorded twice weekly, concurrently with tumor volume measurements.
If the animals' weight subsequently recovered to within a 10% loss compared to baseline, whether to continue the administration was based on the animals' condition. The in vivo experimental for an individual animal or the entire group would be terminated under the following conditions. The animals will be euthanized before death or coma. • ➢ If the animals' health condition deteriorated continuously, causing persistent suffering and is unable to eat or drink. • ➢ If the animal became emaciated, with a body weight loss exceeding 20% compared to the initial administration. • ➢ If the tumor volume of an individual mouse exceeded 3000 mm^3 or the mean tumor volume of the entire group exceeded 2000 mm^3.
All data were analyzed using GraphPad Prism 5.0. P value < 0.05 was considered statistically significant.
Primary tumor cells were extracted from Math1-Cre/Ptch1 ^C/C mice with spontaneous medulloblastoma and subcutaneously inoculated into CB-17/SCID mice to establish a xenograft model of medulloblastoma.

SMILES: Cc1cnc(-c2cc(N3CCc4nc(N5CCC(O)CC5)ncc4[C@H]3C)ncc2Cl)c(C)c1 [Fumarate crystal form F]
- Tumor Volume at Day 0 (mm^3) (1 mg/kg group): 220.5 ± 43.7 mm^3
- Tumor Volume (1 mg/kg i.g. BID × 17 days, day 0 after grouping): 220.5 ± 43.7 mm3
- Tumor Volume (1 mg/kg i.g. BID × 17 days, day 3): 244.9 ± 82.4 mm3
- Tumor Volume (1 mg/kg i.g. BID × 17 days, day 6): 483.8 ± 252.8 mm3
- Tumor Volume (1 mg/kg i.g. BID × 17 days, day 9): 759.7 ± 401.1 mm3
- Tumor Volume (1 mg/kg i.g. BID × 17 days, day 12): 1234.4 ± 582.9 mm3
- Tumor Volume (1 mg/kg i.g. BID × 17 days, day 15): 2056.6 ± 1094.9 mm3
- Tumor Volume (1 mg/kg i.g. BID × 17 days, day 18): 2868.8 ± 1372.9 mm3
- Tumor Volume (1 mg/kg i.g. BID × 17 days, day 21, drug withdrawal observation): 4176.0 ± 1871.1 mm3
- T/C (%) (1 mg/kg i.g. BID): 124.5%
- Tumor Volume at Dosing Endpoint (mm^3) (1 mg/kg i.g. BID): 2868.8 ± 1372.9 mm^3
- Fold Change in Tumor Volume (1 mg/kg i.g. BID): 12.80 ± 4.95
- Tumor Volume at Day 0 (mm^3) (3 mg/kg group): 244.1 ± 17.1 mm^3
- Tumor Volume (3 mg/kg i.g. BID × 17 days, day 0 after grouping): 244.1 ± 17.1 mm3
- Tumor Volume (3 mg/kg i.g. BID × 17 days, day 3): 205.3 ± 26.0 mm3
- Tumor Volume (3 mg/kg i.g. BID × 17 days, day 6): 147.7 ± 56.5 mm3
- Tumor Volume (3 mg/kg i.g. BID × 17 days, day 9): 140.1 ± 62.3 mm3
- Tumor Volume (3 mg/kg i.g. BID × 17 days, day 12): 112.7 ± 46.9 mm3
- Tumor Volume (3 mg/kg i.g. BID × 17 days, day 15): 125.4 ± 58.9 mm3
- Tumor Volume (3 mg/kg i.g. BID × 17 days, day 18): 150.4 ± 77.2 mm3
- Tumor Volume (3 mg/kg i.g. BID × 17 days, day 21, drug withdrawal observation): 199.3 ± 93.7 mm3
- Tumor Volume (3 mg/kg i.g. BID × 17 days, day 23, drug withdrawal observation): 271.2 ± 131.7 mm3
- Tumor Volume (3 mg/kg i.g. BID × 17 days, day 26, drug withdrawal observation): 604.1 ± 328.5 mm3
- Tumor Volume (3 mg/kg i.g. BID × 17 days, day 29, drug withdrawal observation): 887.6 ± 407.9 mm3
- Tumor Volume (3 mg/kg i.g. BID × 17 days, day 32, drug withdrawal observation): 1209.2 ± 513.6 mm3
- Tumor Volume (3 mg/kg i.g. BID × 17 days, day 35, drug withdrawal observation): 1645.0 ±560.6 mm3
- Tumor Volume (3 mg/kg i.g. BID × 17 days, day 38, drug withdrawal observation): 2352.0 ± 963.1 mm3
- T/C (%) (3 mg/kg i.g. BID): 6.03%
- TGI (%) (3 mg/kg i.g. BID): 93.97%
- Tumor Volume at Dosing Endpoint (mm^3) (3 mg/kg i.g. BID): 150.4 ± 77.2 mm^3
- Fold Change in Tumor Volume (3 mg/kg i.g. BID): 0.62 ± 0.33
- Tumor Volume at Day 0 (mm^3) (10 mg/kg group): 234.5 ± 33.6 mm^3
- Tumor Volume (10 mg/kg i.g. BID × 17 days, day 0 after grouping): 234.5 ± 33.6 mm3
- Tumor Volume (10 mg/kg i.g. BID × 17 days, day 3): 187.9 ± 44.7 mm3
- Tumor Volume (10 mg/kg i.g. BID × 17 days, day 6): 98.7 ± 28.9 mm3
- Tumor Volume (10 mg/kg i.g. BID × 17 days, day 9): 47.9 ± 29.8 mm3
- Tumor Volume (10 mg/kg i.g. BID × 17 days, day 12): 24.5 ± 14.9 mm3
- Tumor Volume (10 mg/kg i.g. BID × 17 days, day 15): 10.9 ± 5.1 mm3
- Tumor Volume (10 mg/kg i.g. BID × 17 days, day 18): 8.8 ± 6.1 mm3
- Tumor Volume (10 mg/kg i.g. BID × 17 days, day 21, drug withdrawal observation): 14.7 ± 10.1 mm3
- Tumor Volume (10 mg/kg i.g. BID × 17 days, day 23, drug withdrawal observation): 16.6 ± 9.7 mm3
- Tumor Volume (10 mg/kg i.g. BID × 17 days, day 26, drug withdrawal observation): 18.1 ± 11.5 mm3
- Tumor Volume (10 mg/kg i.g. BID × 17 days, day 29, drug withdrawal observation): 43.9 ± 37.3 mm3
- Tumor Volume (10 mg/kg i.g. BID × 17 days, day 32, drug withdrawal observation): 92.2 + 101.2 mm3
- Tumor Volume (10 mg/kg i.g. BID × 17 days, day 35, drug withdrawal observation): 214.8 + 254.9 mm3
- Tumor Volume (10 mg/kg i.g. BID × 17 days, day 38, drug withdrawal observation): 347.4 + 445.9 mm3
- T/C (%) (10 mg/kg i.g. BID): 0.39%
- TGI (%) (10 mg/kg i.g. BID, TGI = [1 - RTV(treatment group) / RTV(control group)] × 100%): 99.61%
- Tumor Volume at Dosing Endpoint (mm^3) (10 mg/kg i.g. BID): 8.8 ± 6.1 mm^3
- Fold Change in Tumor Volume (10 mg/kg i.g. BID): 0.04 ± 0.03
- anti-tumor efficacy compared to the high-dose GDC-0449 (10 mg/kg) group (high-dose (10 mg/kg)): significantly superior
- inhibitory effect on tumor growth versus vehicle control group (low dose (1 mg/kg)): did not show a significant inhibitory effect
- recurrent tumor volume compared with the GDC-0449 group at the same time (medium and high-dose group, post-treatment observation period): significantly lower
- anti-tumor efficacy compared to the high-dose GDC-0449 (10 mg/kg) group (medium-dose (3 mg/kg)): significantly superior
